Reference: EP3442964B1, “NOVEL N-[(PYRIMIDINYLAMINO)PROPANYL]-AND N [(PYRAZINYLAMINO)PROPANYL]ARYLCARBOXAMIDES” (Boehringer Ingelheim International GmbH, priority 2016, dated 2017)
Read-outs that look alike come from different tables or passages of the source.

Legend:
OX2R [1] = molecular target: T1, OX2R (Homo sapiens, UniProt O43614); conditions: as described in WO2013/187466; agonist 3 nM modified orexin A; cited from earlier work
T1 sequence (O43614 1-444): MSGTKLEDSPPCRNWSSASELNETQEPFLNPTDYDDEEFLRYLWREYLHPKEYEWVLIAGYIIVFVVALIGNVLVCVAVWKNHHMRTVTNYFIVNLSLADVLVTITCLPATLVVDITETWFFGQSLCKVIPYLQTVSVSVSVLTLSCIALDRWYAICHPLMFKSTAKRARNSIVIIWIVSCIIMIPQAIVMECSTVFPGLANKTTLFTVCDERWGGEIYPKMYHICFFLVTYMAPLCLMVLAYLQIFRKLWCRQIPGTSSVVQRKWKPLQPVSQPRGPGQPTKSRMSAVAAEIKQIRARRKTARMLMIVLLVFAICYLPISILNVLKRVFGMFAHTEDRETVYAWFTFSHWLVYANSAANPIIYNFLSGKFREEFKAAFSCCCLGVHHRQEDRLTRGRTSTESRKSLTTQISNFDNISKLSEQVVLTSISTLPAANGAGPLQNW

[2] = Assay C: metabolic stability in human liver microsomes (human MST); assay type: in vitro ADME; conditions: pooled human liver microsomes, pH 7.6, 1 µM test compound, 37°C
Description: Stability in human liver microsomes refers to the susceptibility of compounds to biotransformation in the context of selecting and/or designing drugs with favorable pharmacokinetic properties. The primary site of metabolism for many drugs is the liver. Human liver microsomes contain the cytochrome P450s (CYPs), and thus represent a model system for studying drug metabolization in vitro. Enhanced stability in human liver microsomes is associated with several advantages, including increased bioavailability and longer half-life, which can enable lower and less frequent dosing of patients. Thus, enhanced stability in human liver microsomes is a favorable characteristic for compounds that are to be used for drugs.
The metabolic stability of the compounds according to the invention may be investigated as follows: The metabolic degradation of the test compound is assayed at 37°C with pooled human liver microsomes. The final incubation volume of 100 µL per time point contains TRIS buffer pH 7.6 at room temperature (0.1 M), MgCl2 (5 mM), microsomal protein (1 mg/mL) and the test compound at a final concentration of 1 µM. Following a short pre-incubation period at 37°C , the reactions are initiated by addition of beta-nicotinamide adenine dinucleotide phosphate, reduced form (NADPH, 1 mM), and terminated by transferring an aliquot into solvent after different time points. After centrifugation (10000 g, 5 min), an aliquot of the supernatant is assayed by LC-MS/MS for the amount of parent compound. The half-life (t1/2) is determined by the slope of the semi-logarithmic plot of the concentration-time profile.

human MDR1 P-gp = molecular target: T2, human MDR1 P-gp (Homo sapiens, UniProt P08183); experiment: Assay D: efflux in MDCK cells transfected with the human MDR1 gene; assay type: in vitro ADME; conditions: MDCK-MDR1 monolayers, pH 7.4, 37°C, read-out: Assay D:MDCK efflux ratio (BA/AB)
T2 construct: expressed in transfected cells; host or cells: MDCK (MDCK-MDR1)
Protocol: The MDCK assay provides information on the potential of a compound to pass the blood brain barrier. Permeability measurements across polarized, confluent MDCK-MDR1 cell monolayers grown on permeable filter supports are used as an in vitro absorption model: apparent permeability coefficients (PE) of the compounds across the MDCK-MDR1 cell monolayers are measured (pH 7.4, 37°C) in apical-to-basal (AB) and basal-to-apical (BA) transport direction. The AB permeability (PEAB) represents drug absorption from the blood into the brain and the BA permeability (PEBA) drug efflux from the brain back into the blood via both, passive permeability as well as active transport mechanisms mediated by efflux and uptake transporters that are expressed on the MDCK-MDR1 cells, predominantly by the overexpressed human MDR1 P-gp. Identical or similar permeabilities in both transport directions indicate passive permeation, vectorial permeability points to additional active transport mechanisms. Higher PEBA than PEAB (PEBA/PEAB > 5) indicates the involvement of active efflux mediated by MDR1 P-gp, which might compromises the goal to achieve sufficient brain exposure. Therefore this assay provides valuable support for selection of compounds applicable for further in vivo testing. High permeability not limited by efflux at the blood brain barrier is a favourable characteristic for compounds that are to be used for drugs acting primarily in the CNS
Apparent permeability coefficients (PE) of the compounds across the MDCK-MDR1 cell monolayers are measured (pH 7.4, 37°C) in apical-to-basal (AB) and basal-to-apical (BA) transport direction. AB permeability (PEAB) represents drug absorption from the blood into the brain and BA permeability (PEBA) drug efflux from the brain back into the blood via both passive permeability as well as active transport mechanisms mediated by efflux and uptake transporters that are expressed on the MDCK-MDR1 cells, predominantly by the overexpressed human MDR1 P-gp. The compounds are assigned to permeability/absorption classes by comparison of the AB permeabilities with the AB permeabilities of reference compounds with known in vitro permeability and oral absorption in the human. Identical or similar permeabilities in both transport directions indicate passive permeation, vectorial permeability points to additional active transport mechanisms. Higher PEBA than PEAB indicates the involvement of active efflux mediated by MDR1 P-gp. Active transport is concentration- dependently saturable.
MDCK-MDR1 cells (1-2 x 10e5 cells/1 cm2 area) are seeded on filter inserts (Costar transwell polycarbonate or PET filters, 0.4 µm pore size) and cultured (DMEM) for 7 days. Subsequently, the MDR1 expression is boosted by culturing the cells with 5 mM sodium butyrate in full medium for 2 days. Compounds are dissolved in appropriate solvent (like DMSO, 1 -20 mM stock solutions). Stock solutions are diluted with HTP-4 buffer (128.13 mM NaCl, 5.36 mM KCI, 1 mM MgSO4, 1.8 mM CaCl2, 4.17 mM NaHCO3, 1.19 mM Na2HPO4 x 7H2O, 0.41 mM NaH2PO4xH2O, 15 mM HEPES, 20 mM glucose, 0.25 % BSA, pH 7.4) to prepare the transport solutions (0.1 - 300 µM compound, final DMSO <= 0.5 %). The transport solution (TL) is applied to the apical or basolateral donor side for measuring A-B or B-A permeability (3 filter replicates), respectively. The receiver side contains the same buffer as the donor side. Samples are collected at the start and end of experiment from the donor and at various time intervals for up to 2 hours also from the receiver side for concentration measurement by HPLC-MS/MS or scintillation counting. Sampled receiver volumes are replaced with fresh receiver solution.

human orexin 2 receptor = molecular target: T3, human orexin 2 receptor (Homo sapiens, UniProt O43614); assay type: cell-based; conditions: 0.5 nM Orexin A
T3 sequence (O43614 1-444): T1 sequence (O43614 1-444)
Description: Chem. Genomics 2009, 3, 22-32.

OX2R [3] = molecular target: T1, OX2R; conditions: cited from earlier work
OX1R [4] = molecular target: T4, OX1R (Homo sapiens, UniProt O43613); experiment: OX1R assay as described in WO2016/034882
T4 sequence (O43613 1-425): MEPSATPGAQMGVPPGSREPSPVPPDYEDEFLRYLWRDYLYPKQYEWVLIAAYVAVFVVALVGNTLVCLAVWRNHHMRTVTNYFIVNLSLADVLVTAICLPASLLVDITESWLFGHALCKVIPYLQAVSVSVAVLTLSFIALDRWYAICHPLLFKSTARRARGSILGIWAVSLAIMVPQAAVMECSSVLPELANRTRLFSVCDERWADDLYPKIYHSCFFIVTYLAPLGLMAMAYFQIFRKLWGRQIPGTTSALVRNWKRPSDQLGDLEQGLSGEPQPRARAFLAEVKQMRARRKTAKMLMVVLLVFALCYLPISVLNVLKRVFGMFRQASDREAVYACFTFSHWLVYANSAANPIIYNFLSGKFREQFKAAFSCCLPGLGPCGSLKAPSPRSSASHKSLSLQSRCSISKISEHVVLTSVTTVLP

OX1R [5] = molecular target: T4, OX1R; conditions: cited from earlier work
[6] = read-out: Assay C: Human MST t1/2
[7] = corresponds to pIC50 of Table 1 of WO2016/034882
[8] = corresponds to pIC50 of Table 3 of WO2016/034882
[9] = from values of Table 3 of WO2016/034882

T2 sequence (P08183 whole entry): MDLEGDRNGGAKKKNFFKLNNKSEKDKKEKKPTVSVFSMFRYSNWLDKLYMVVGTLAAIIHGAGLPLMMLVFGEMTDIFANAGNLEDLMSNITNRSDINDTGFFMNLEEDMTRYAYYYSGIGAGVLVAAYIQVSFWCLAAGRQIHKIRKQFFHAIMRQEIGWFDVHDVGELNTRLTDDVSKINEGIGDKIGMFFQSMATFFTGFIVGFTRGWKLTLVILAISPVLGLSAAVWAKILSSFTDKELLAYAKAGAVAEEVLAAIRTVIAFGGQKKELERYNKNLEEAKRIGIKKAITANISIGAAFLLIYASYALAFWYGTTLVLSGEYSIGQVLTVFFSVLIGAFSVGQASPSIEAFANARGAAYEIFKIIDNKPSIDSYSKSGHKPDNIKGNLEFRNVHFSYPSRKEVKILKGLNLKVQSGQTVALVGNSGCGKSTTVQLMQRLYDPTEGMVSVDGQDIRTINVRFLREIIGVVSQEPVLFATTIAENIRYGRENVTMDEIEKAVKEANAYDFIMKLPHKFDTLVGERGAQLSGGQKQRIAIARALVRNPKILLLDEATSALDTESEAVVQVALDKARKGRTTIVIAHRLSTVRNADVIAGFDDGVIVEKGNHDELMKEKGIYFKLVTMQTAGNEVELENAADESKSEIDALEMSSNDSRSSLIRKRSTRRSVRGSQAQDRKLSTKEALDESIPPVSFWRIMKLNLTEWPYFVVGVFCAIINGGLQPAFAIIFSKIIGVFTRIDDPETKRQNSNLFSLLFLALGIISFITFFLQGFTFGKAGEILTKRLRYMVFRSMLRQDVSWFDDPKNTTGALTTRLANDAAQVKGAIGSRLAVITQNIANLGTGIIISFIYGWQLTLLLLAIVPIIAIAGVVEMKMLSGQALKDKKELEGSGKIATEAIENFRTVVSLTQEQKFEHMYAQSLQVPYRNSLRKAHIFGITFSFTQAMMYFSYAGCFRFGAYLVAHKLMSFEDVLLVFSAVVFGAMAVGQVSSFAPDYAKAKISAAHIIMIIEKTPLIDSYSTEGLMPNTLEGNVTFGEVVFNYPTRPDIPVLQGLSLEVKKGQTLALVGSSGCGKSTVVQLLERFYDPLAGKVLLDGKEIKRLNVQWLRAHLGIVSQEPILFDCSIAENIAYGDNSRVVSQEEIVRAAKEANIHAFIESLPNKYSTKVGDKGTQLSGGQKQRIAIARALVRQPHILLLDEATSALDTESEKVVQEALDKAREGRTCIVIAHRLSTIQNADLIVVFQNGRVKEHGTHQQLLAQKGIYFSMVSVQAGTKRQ

Row | Structure (SMILES) | efflux ratio (human MDR1 P-gp) | half-life at 1 µM [2, 6] [min] | OX2R pIC50 (OX2R [3]; Table 3 of WO2016/034882) | IC50 (OX2R [3]; [8]) [nM] | other results
1 | C[C@@H](Cn1ccc(-c2ccc(F)cn2)n1)N(C)C(=O)c1cc(F)ccc1-c1ncccn1 [Example 5 in WO2013/187466, reference compound] |  |  |  |  | IC50 (OX2R [1]): 76 nM; half-life at 1 µM ([2]; read-out: Data as determined in Assay C: Human MST t1/2): 30 min
2 | CCN(C(=O)c1cccc(F)c1-n1nccn1)[C@@H](C)CNc1cnc(C(F)(F)F)cn1 [Example 24] | 3 to 5 | 61 |  |  | Kb (human orexin 2 receptor): 10 nM
3 | CC[C@@H](CNc1cnc(C(F)(F)F)cn1)N(C)C(=O)c1cc(Cl)ccc1-n1nccn1 [Example 40 in WO2016/034882] | < 3 | 9 |  |  | IC50 (OX2R [3]; [7]): 2500 nM; OX2R IC50/OX1R IC50 (OX1R [4]; from values of Table 1 of WO2016/034882): Table 1: 156; IC50 (OX1R [5]; [7]): 16 nM
4 | CC[C@@H](CNc1ncc(C(F)(F)F)cn1)N(C)C(=O)c1nc(C)ccc1-n1nccn1 [Example 46 in WO2016/034882] | < 3 | 32 | < 5.0 | ≥ 10000 | OX2R pIC50 (OX2R [3]; Table 1 of WO2016/034882): 5.1; OX2R pIC50 (OX2R [3]; Table 2 of WO2016/034882): < 5.0; IC50 (OX2R [3]; corresponds to pIC50 of Table 2 of WO2016/034882): > 10000 nM; IC50 (OX1R [5]; [7]): 20 nM
5 | CC[C@@H](CNc1ncc(C(F)(F)F)cn1)N(CC)C(=O)c1nc(C)ccc1-n1nccn1 [Example 73 in WO2016/034882] |  | 11 | < 6.0 | > 1000 | 
6 | CC[C@@H](CNc1ncc(C(F)(F)F)cn1)N(C)C(=O)c1nc(C)ccc1-c1ncccn1 [Example 84 in WO2016/034882] | < 3 | 41 | 6.0 | 1000 | 
7 | CC[C@@H](CNc1ncc(C(F)(F)F)cn1)N(C)C(=O)c1nc(C)ccc1-n1cccn1 [Example 90 in WO2016/034882] | < 3 | 26 | < 6.0 | > 1000 | OX2R IC50/OX1R IC50 (OX1R [4]; [9]): Table 3: >526; Kb (human orexin 2 receptor): 974 nM; IC50 (OX1R [5]; [8]): 1.9 nM
8 | CC[C@@H](CNc1ncc(C(F)(F)F)cn1)N(C)C(=O)c1c(F)cccc1-n1nccn1 [Example 91 in WO2016/034882] | < 3 | > 120 | < 5.1 | ≥ 7950 | OX2R IC50/OX1R IC50 (OX1R [4]; [9]): Table 3: 318; IC50 (OX1R [5]; [8]): 25 nM
